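Where inhibition never reached the appropriate level, the endpoint shown equals the highest concentration tested. Otherwise, values were interpolated linearly from a five-concentration, 48-hour dose response in 96-well plates. At the TGI there is no net growth.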

Some test systems named below: HL-60(TB) leukemia; NCI-H23 lung; OVCAR-3 ovarian; UACC-62 melanoma; SNB-19 CNS; LOX IMVI melanoma; MDA-MB-231 breast; HS 578T breast; NCI-H522 lung; HCT-116 colon.
Common to all, as to test: NCI-60 cell line screen, 48 h

As to `c1ccc2c3c(c(N4CCOCC4)nc2c1)CCCC3`, the TGI in the experiment with HL-60(TB) leukemia was 69.3 µM; in the experiment on NCI-H23 lung, more than 100 µM; in the experiment on OVCAR-3 ovarian, more than 100 µM; in the experiment with UACC-62 melanoma it was more than 100 µM; in the experiment on SNB-19 CNS, more than 100 µM; with LOX IMVI melanoma, more than 100 µM. The TGI with MDA-MB-231 breast, with HS 578T breast, with NCI-H522 lung and in the experiment on HCT-116 colon was more than 100 µM in each case.

With `OC1(c2ccc(Cl)cc2)c2ccc3ccccc3c2C2=N[C@H]3CCCC[C@@H]3N21` (stereo not given in full), the TGI in the experiment on HL-60(TB) leukemia was more than 100 µM; with NCI-H23 lung it was more than 100 µM; in the experiment with OVCAR-3 ovarian it was 21.9 µM; in the experiment with UACC-62 melanoma, 41.4 µM; with SNB-19 CNS it was more than 100 µM; in the experiment with LOX IMVI melanoma, 10.5 µM. Moreover, the TGI is more than 100 µM in the experiment with MDA-MB-231 breast, 3.94 µM with HS 578T breast, more than 100 µM with NCI-H522 lung and 20.5 µM in the experiment with HCT-116 colon.

For `COc1cc(CN2CCCCC2)cc2cc(C(=O)O)c(=O)oc12`, the TGI in the experiment on HL-60(TB) leukemia, with NCI-H23 lung, in the experiment with OVCAR-3 ovarian, in the experiment on UACC-62 melanoma, with SNB-19 CNS and in the experiment with LOX IMVI melanoma was more than 100 µM throughout. Also, the TGI with MDA-MB-231 breast, in the experiment on HS 578T breast, in the experiment on NCI-H522 lung and with HCT-116 colon was more than 100 µM throughout.

For the molecule `FC(F)(F)c1ccc2nc3n(c2c1)C(c1c(Cl)cccc1Cl)SC3` (stereo not given), the TGI in the experiment with HL-60(TB) leukemia is 33.2 µM; with NCI-H23 lung, 37 µM; with OVCAR-3 ovarian it was 29.4 µM; in the experiment with UACC-62 melanoma, 28.6 µM; in the experiment with SNB-19 CNS, 34 µM; with LOX IMVI melanoma it was more than 100 µM. For the same molecule, the TGI came to 37.7 µM with MDA-MB-231 breast, 68.9 µM in the experiment on HS 578T breast, 29.7 µM in the experiment with NCI-H522 lung and 22.4 µM in the experiment with HCT-116 colon.

Consider `NC(=O)C(=CNC(=S)c1ccncc1)C(N)=O`, for which the TGI with HL-60(TB) leukemia, in the experiment with NCI-H23 lung, with OVCAR-3 ovarian, in the experiment with UACC-62 melanoma, in the experiment with SNB-19 CNS and in the experiment on LOX IMVI melanoma was more than 100 µM each time. Further, the TGI in the experiment with MDA-MB-231 breast, in the experiment on HS 578T breast, in the experiment on NCI-H522 lung and with HCT-116 colon was more than 100 µM throughout.

For the molecule `COc1cc2c(/C=C3/C(=O)Nc4ccccc43)c(Cl)[nH]c2cc1C`, the TGI in the experiment with HL-60(TB) leukemia was 3.34 µM; in the experiment on NCI-H23 lung, 0.879 µM; in the experiment with OVCAR-3 ovarian, more than 39.9 µM; in the experiment with UACC-62 melanoma it was 15.5 µM; in the experiment on SNB-19 CNS it was 17.5 µM; in the experiment on LOX IMVI melanoma it was 15.4 µM. Moreover, the TGI in the experiment with MDA-MB-231 breast was 4.89 µM; with HS 578T breast, more than 100 µM; in the experiment on NCI-H522 lung, 2.4 µM; in the experiment with HCT-116 colon it was 11 µM.

For the molecule `Cc1nn(-c2cc(Cl)ccc2[N+](=O)[O-])c(C)c1Cl`, the TGI in the experiment on HL-60(TB) leukemia, in the experiment with NCI-H23 lung, in the experiment with OVCAR-3 ovarian, in the experiment with UACC-62 melanoma, in the experiment on SNB-19 CNS and with LOX IMVI melanoma was more than 100 µM throughout. The TGI in the experiment on MDA-MB-231 breast, in the experiment on HS 578T breast, in the experiment on NCI-H522 lung and in the experiment on HCT-116 colon was more than 100 µM each time.

Take `NC(=O)c1cc2ccccc2o/c1=N/O`: the TGI with HL-60(TB) leukemia, in the experiment with NCI-H23 lung, in the experiment with OVCAR-3 ovarian, in the experiment on UACC-62 melanoma, in the experiment with SNB-19 CNS and in the experiment on LOX IMVI melanoma was more than 100 µM each time. For the same molecule, the TGI was more than 100 µM in the experiment with MDA-MB-231 breast, 91.6 µM in the experiment on HS 578T breast, more than 100 µM in the experiment with NCI-H522 lung and more than 100 µM with HCT-116 colon.

Regarding `CC1S/C(=N/c2nnc(-c3ccccc3)o2)NC1=O` (stereo not given), the TGI in the experiment on HL-60(TB) leukemia is more than 100 µM; in the experiment with NCI-H23 lung, more than 100 µM; with OVCAR-3 ovarian it was 69.5 µM; in the experiment on UACC-62 melanoma it was more than 100 µM; in the experiment with SNB-19 CNS, more than 100 µM; in the experiment on LOX IMVI melanoma, more than 100 µM. In addition, the TGI is more than 100 µM with MDA-MB-231 breast, more than 100 µM in the experiment on HS 578T breast, more than 100 µM with NCI-H522 lung and 37.4 µM with HCT-116 colon.

Take `CCOc1cc(-c2nc3ccccn3c2/N=C/c2cc(Br)ccc2O)ccc1O`: the TGI in the experiment on HL-60(TB) leukemia was more than 100 µM; with NCI-H23 lung, more than 100 µM; in the experiment with OVCAR-3 ovarian it was 34 µM; in the experiment with UACC-62 melanoma it was 57 µM; in the experiment with SNB-19 CNS, 52.6 µM; with LOX IMVI melanoma, more than 100 µM. The TGI in the experiment on MDA-MB-231 breast, with HS 578T breast, with NCI-H522 lung and in the experiment on HCT-116 colon was more than 100 µM each time.

Take `Brc1ccc2c(-c3csc(-c4c[nH]c5ccc(Br)cc45)n3)c[nH]c2c1`: the TGI was 19.7 µM in the experiment on HL-60(TB) leukemia; 14.2 µM in the experiment on NCI-H23 lung; 23.2 µM in the experiment on OVCAR-3 ovarian; 9.2 µM in the experiment with UACC-62 melanoma; 14.7 µM in the experiment on SNB-19 CNS; 4.16 µM with LOX IMVI melanoma. In addition, the TGI with MDA-MB-231 breast is more than 24.6 µM; with HS 578T breast, more than 51.3 µM; with NCI-H522 lung it was 4.95 µM; in the experiment with HCT-116 colon, 13.9 µM.

Turning to `CC(C)(C)c1cc(/C=C(\C#N)C(=O)NCCO)cc(C(C)(C)C)c1O`, the TGI was 36.9 µM in the experiment with HL-60(TB) leukemia; 89.7 µM in the experiment with NCI-H23 lung; 33.5 µM with OVCAR-3 ovarian; 27.5 µM in the experiment on UACC-62 melanoma; more than 100 µM in the experiment on SNB-19 CNS; 53.9 µM with LOX IMVI melanoma. Further, the TGI in the experiment on MDA-MB-231 breast was 43.9 µM; with HS 578T breast, more than 100 µM; in the experiment with NCI-H522 lung it was 37 µM; with HCT-116 colon, 32.7 µM.

As to `CCOC(=O)C(NC(=O)CC(C)C)(N1CCN(c2cc3c(cc2F)c(=O)c(C(=O)O)cn3C2CC2)CC1)C(F)(F)F` (stereo not given), the TGI with HL-60(TB) leukemia is 26 µM; with NCI-H23 lung it was 33.5 µM; in the experiment on OVCAR-3 ovarian it was 66.7 µM; in the experiment on UACC-62 melanoma it was 30.2 µM; in the experiment with SNB-19 CNS it was more than 100 µM; in the experiment with LOX IMVI melanoma, 35.5 µM. Further, the TGI with MDA-MB-231 breast is 46.1 µM; in the experiment on HS 578T breast, 57.8 µM; in the experiment with NCI-H522 lung, 11.9 µM; in the experiment with HCT-116 colon it was 56.2 µM.

`CCOC(=O)C(CC#Cc1ccc(C#CCC(NC(C)=O)C(=O)OCC)cc1)NC(C)=O` (stereo not given): the TGI in the experiment on HL-60(TB) leukemia, in the experiment on NCI-H23 lung, in the experiment on OVCAR-3 ovarian, in the experiment on UACC-62 melanoma, with SNB-19 CNS and in the experiment with LOX IMVI melanoma was more than 100 µM throughout. The TGI in the experiment with MDA-MB-231 breast, with HS 578T breast, in the experiment with NCI-H522 lung and in the experiment on HCT-116 colon was more than 100 µM throughout.

In the case of `CC1CC(=O)Nc2nc3ccccc3n21` (stereo not given), the TGI with HL-60(TB) leukemia, in the experiment on NCI-H23 lung, in the experiment on OVCAR-3 ovarian, with UACC-62 melanoma, in the experiment on SNB-19 CNS and with LOX IMVI melanoma was more than 100 µM throughout. The TGI with MDA-MB-231 breast, in the experiment on HS 578T breast, in the experiment with NCI-H522 lung and with HCT-116 colon was more than 100 µM each time.

For the molecule `NC(N)=NS(=O)(=O)c1ccc(NC(=O)c2ccc3nc4ccccc4c(Nc4ccc(S(=O)(=O)N=C(N)N)cc4)c3c2)cc1`, the TGI in the experiment with HL-60(TB) leukemia, in the experiment on NCI-H23 lung, in the experiment on OVCAR-3 ovarian, in the experiment on UACC-62 melanoma, with SNB-19 CNS and in the experiment with LOX IMVI melanoma was more than 100 µM throughout. Moreover, the TGI in the experiment with MDA-MB-231 breast, with HS 578T breast, with NCI-H522 lung and in the experiment with HCT-116 colon was more than 100 µM in each case.

As for `COC(=O)C1=Nc2c(C)nn(-c3ccccc3)c2N=C(c2ccc([N+](=O)[O-])cc2)C1`, the TGI in the experiment on HL-60(TB) leukemia, in the experiment on NCI-H23 lung, in the experiment with OVCAR-3 ovarian, with UACC-62 melanoma, with SNB-19 CNS and with LOX IMVI melanoma was more than 10 µM each time. Moreover, the TGI with MDA-MB-231 breast, with HS 578T breast, with NCI-H522 lung and with HCT-116 colon was more than 10 µM in each case.

Consider `Cc1cc2ncc3c(=O)n(NS(=O)(=O)c4ccc(N)cc4)ccc3n2n1`, for which the TGI in the experiment on HL-60(TB) leukemia, with NCI-H23 lung, in the experiment on OVCAR-3 ovarian, in the experiment on UACC-62 melanoma, in the experiment on SNB-19 CNS and in the experiment with LOX IMVI melanoma was more than 100 µM throughout. In addition, the TGI in the experiment on MDA-MB-231 breast, with HS 578T breast, with NCI-H522 lung and in the experiment with HCT-116 colon was more than 100 µM each time.

For the molecule `CC1(CNCc2ccccc2)CC(CCc2ccccc2)N(C(=O)c2ccc([N+](=O)[O-])cc2)C1Cc1ccc(O)cc1` (stereo not given), the TGI with HL-60(TB) leukemia stood at 54.4 µM; with NCI-H23 lung, 23.5 µM; in the experiment with OVCAR-3 ovarian, 24.6 µM; with UACC-62 melanoma, 28.9 µM; with SNB-19 CNS, 29.1 µM; with LOX IMVI melanoma, 26.2 µM. For the same molecule, the TGI in the experiment on MDA-MB-231 breast was determined as 24.4 µM; in the experiment on HS 578T breast, 46.8 µM; with NCI-H522 lung, 22.3 µM; in the experiment on HCT-116 colon, 23.1 µM.

For the molecule `Brc1cc2nn(-c3ccccc3)nc2c2nonc12`, the TGI in the experiment on HL-60(TB) leukemia, with NCI-H23 lung, in the experiment with OVCAR-3 ovarian, with UACC-62 melanoma, in the experiment with SNB-19 CNS and in the experiment on LOX IMVI melanoma was more than 100 µM each time. In addition, the TGI in the experiment on MDA-MB-231 breast, with HS 578T breast, in the experiment with NCI-H522 lung and in the experiment on HCT-116 colon was more than 100 µM throughout.

(Values after PubChem BioAssay (NCI).)
